The METLIN SMRT retention time set (Domingo-Almenara et al. 2019)

Assay: gradient 5% acetonitrile 3 min, to 50% in 2 min, to 85% in 15 min, held 3 min, 100 µL/min
Conditions: column: Zorbax Extend-C18 2.1 x 50 mm; eluents: water / acetonitrile, 0.1% formic acid
Summary of the method: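 Pure standards were run in mixtures of ~100 molecules by HPLC coupled to a quadrupole time-of-flight mass spectrometer. The column was a Zorbax Extend-C18 (2.1 × 50 mm, 1.8 μm) at 100 μL/min, with water and acetonitrile each containing 0.1% formic acid, in positive and negative ionization mode. Dead and dwell volumes were 40 μL and 900 μL. Retention time was taken from computationally picked adduct peaks, each manually inspected, with data collected over 3 months.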

Structure (SMILES)	RP-LC retention time [s]
CC1CCc2ccccc2N1C(=O)c1cccs1 (centres undefined)	913
O=C(CN1C(=O)CCS(=O)(=O)c2ccccc21)Nc1ccc(C(F)(F)F)cc1	843
COc1ccc(-c2cc3nn(CC(=O)Nc4ccc(F)c(Cl)c4)c(=O)n3c(C)n2)cc1	992
Cc1nnc(-c2cccc(Cl)c2)nc1NC(C)C	717
COc1cccc(-n2c(=O)c(C(=O)NC(C)c3ccccc3)c(O)c3cccnc32)c1 (centres undefined)	1180
CN(C)S(=O)(=O)c1ccc2c(c1)N(CC(=O)N1CCN(c3ccccn3)CC1)CCS2	640
CC1Oc2ccc(-c3csc(NC(=O)C(C)(C)C)n3)cc2NC1=O (centres undefined)	856
Cc1cc(N2CCN(C(=O)c3ccc4c(c3)OCO4)CC2)nc2nnc(C)n12	595
Cn1cc(-c2nc(C(=O)Nc3cccc(Cl)c3)cs2)c2cccnc21	1110
Cc1ccc(NC(=O)N(C)CC2CCOC2)cc1 (centres undefined)	667
COc1cc(OC)c(NC(=O)N2CCC(n3c(C)nc4cccnc43)CC2)cc1Cl	711
Cc1ccc(CN2C(=O)CN(S(C)(=O)=O)CC2(C)C(=O)NCc2ccccc2)cc1 (centres undefined)	851
CC(C)NC(=O)c1ccc(OCC2CCCN(C(=O)c3ccc(F)cc3F)C2)cc1 (centres undefined)	869
Cc1ccccc1C1CCCN1C(=O)c1cnn2cc(Br)cnc12 (centres undefined)	869
Cc1ccc(CNC(=O)C2CCN(S(=O)(=O)c3ccc4c(c3)NC(=O)CO4)CC2)cc1	794
O=C(Cn1c(=O)c2cccn2c2ccc(F)cc21)NCCCN1CCCCC1	600
CCc1c(C2CCN(C(=O)c3cc4ccccc4[nH]3)CC2)noc1N	774
Cc1c(Cl)cccc1S(=O)(=O)NCC(O)c1ccc(C(F)(F)F)cc1 (centres undefined)	938
COc1ccc(OC)c(CNC(=O)c2c(N3CCCC3=O)c3cc(F)ccc3n2C)c1	904
O=C(c1ccc(N2CCCC2)nn1)N1CCN(c2ncccn2)CC1	548
O=C1Nc2ccccc2SC1C(=O)N1CCC(C(=O)N2CC=C(c3ccccc3)CC2)CC1 (centres undefined)	831
CCN(CCN(C)C)c1ccc(C(=O)O)cc1NS(=O)(=O)c1cc(F)ccc1F	611
O=C(Cn1cnc2ccccc2c1=O)N1CCC(c2nnc(-c3ccco3)o2)CC1	621
Cc1nc(-c2csc(S(=O)(=O)N3CCC(C(=O)Nc4ccc(F)c(Cl)c4)CC3)c2)no1	1010
COc1ccccc1CCC(=O)NC(C(=O)Nc1nc2ccccc2[nH]1)C(C)C (centres undefined)	721

Structure (SMILES)	RP-LC retention time [s]
CCCNC(=O)CC1Sc2ncccc2N(CCC)C1=O (centres undefined)	683
CNC(=O)N1CCCC(c2cccc(C(=O)NCc3ccc(Br)cc3)c2)C1 (centres undefined)	830
Cc1ccccc1-c1noc(Cn2c(=O)n(C(C)C)c(=O)c3ccccc32)n1	1160
O=C(O)c1nnn(-c2ccc3c(c2)OCO3)c1-c1ccncc1	612
CC(NC(=O)c1ccc(-c2cncnc2)nc1)c1ccccc1 (centres undefined)	715
O=C(Cn1nc2c(N3CCCCCC3)nccn2c1=O)Nc1ccccc1F	682
CC1CCN(C(=O)c2cn(-c3cc(N4CCOCC4)ncn3)cn2)CC1	729
Cc1nn(-c2ccc(N3CCCCC3)nn2)c(C)c1CCC(=O)N1CCN(c2ccccn2)CC1	594
CCOc1ccc(-c2noc(Cn3c(=O)n(-c4ccc(F)cc4)c(=O)c4sccc43)n2)cc1OC	940
CCCNc1cc(N2CCC(CCC(=O)N(C)Cc3ccccc3)CC2)ncn1	702
CC(=O)N1CCC2(CC1)Oc1ccccc1C1CC(c3ccc4c(c3)OCO4)=NN12 (centres undefined)	783
Cc1ccc(C)c(C(O)Cn2ccn3nc(-c4cccc(Br)c4)cc3c2=O)c1 (centres undefined)	1160
O=c1ccn(-c2cccc(F)c2)nc1-c1nc(-c2ccc(F)c(Cl)c2)no1	984
COc1ccc(-c2c(C(=O)NCc3cccnc3)nn3c(C)cc(C)nc23)cc1S(=O)(=O)N1CCCC1	638
Cc1ccc(CNC(=O)C2(C)Cn3nc(C(=O)NCCCN4CCCCCC4)cc3C(=O)N2C)cc1 (centres undefined)	617
Cc1oc2ncnc(N3CCCCC3)c2c1C(=O)NCCN(Cc1ccco1)C1CCCC1	845
O=C(NCCc1cccs1)C1CN(S(=O)(=O)C2CC2)CC12CCCCC2 (centres undefined)	934
CN1CCN(c2nc3c(c(Nc4ccccc4)n2)C(=O)CC(C)(C)C3)CC1	713
CC1(C)[C@H]2CC[C@](C)(C2)[C@H]1NS(=O)(=O)c1ccc(F)cc1	1140
CN1C(=O)C2CCCCN2c2ccc(C(=O)NCc3ccc4c(c3)OCO4)cc21 (centres undefined)	563
Cc1cc(C)cc(Nc2c(-c3ccc(O)cc3)nc3ncccn23)c1	705
Cc1ccc(NC(=O)Cn2c(C(C)C)nc3c(c2=O)CCN(Cc2ccccc2)C3)cc1C	761
O=C(Cn1nc2n(c1=O)CCCCC2)NCc1ccc2c(c1)OCO2	756
Cc1ccc(-c2ncc(C(=O)NCc3ccccc3C)c(-c3ccncc3)n2)cc1	909
COc1ccc(Cl)cc1S(=O)(=O)N1CCC(C(=O)NCCC2=CCCCC2)CC1	994

Now from value to compound:

RP-LC retention time [s]	Structure (SMILES)
1100	C=CCN1C(=O)COc2ccc(-c3csc(NC(=O)c4ccc(Cl)cc4)n3)cc21
1100	CCN1C(=O)COc2ccc(-c3csc(NC(=O)c4cccc(Br)c4)n3)cc21
629	CN(C)C[C@@H]1CN(S(C)(=O)=O)C[C@H]1NC(=O)COc1ccc(Cl)cc1
625	Cc1cc(C(=O)Nc2ccc(S(C)(=O)=O)cc2)on1
642	CCN(CC)C(=O)c1ccc2c(c1)N(CC(=O)N1CCOCC1)C(=O)CS2
681	O=C(CSc1ccc(-n2cccn2)nn1)NCc1cccs1
991	CC1CCCC(NC(=O)C2CCCN(C(=O)c3cc4sccc4n3C)C2)C1C (centres undefined)
831	NC(=O)c1cccc2ncc(-c3ccc(Cl)cc3)nc12
786	CCCCOc1ccc(NC(=O)c2cc(=O)c3cc(CC)ccc3o2)c2cccnc12
660	COCC(=O)N1CC2CN(S(=O)(=O)c3cccc(F)c3)CC(C1)O2
682	Cn1cc(-c2ccncc2)cc1C(=O)N1CCN(c2ccc(Cl)cc2)CC1
974	O=C(C1=NN(Cc2ccccc2)c2ccccc2S1(=O)=O)N1CCCCCC1
566	NC(=O)Cn1cnc2nc(N3CCC(C(=O)NC4CC4)CC3)sc2c1=O
699	COc1ccccc1N1CCN(C(=O)c2cc(C3CC3)[nH]n2)CC1
1250	CCC(=O)N(CC)c1nc(-c2ccc(Br)cc2)cs1
561	COc1ccccc1-c1[nH]ncc1CN1CCC2(CC1)CC(O)CCO2 (centres undefined)
1070	COc1ccc(OC)c(CNC(=O)C2CCCN(c3nccnc3Sc3ccc(C)cc3)C2)c1 (centres undefined)
810	Cc1ccc(C2Cn3cnc(C(=O)N4CCC(C(=O)NCc5ccccc5C)CC4)c3CO2)cc1 (centres undefined)
1010	CCn1c(=O)c(C)nc2cc(-c3noc(/C=C/c4ccc(OC)c(OC)c4)n3)ccc21
880	CCc1nc(-c2csc(S(=O)(=O)N3CCC(C(=O)NC4CCCC4)CC3)c2)no1

RP-LC retention time [s]	Structure (SMILES)
1150	CCCn1cc(S(=O)(=O)N2CCN(c3ccccc3Cl)CC2)c2cccnc21
665	CCc1noc(NC(C)=O)c1-c1ccc(C)c(S(=O)(=O)N2CCN(c3ccccn3)CC2)c1
682	COc1ccc(C2(C(N)=O)CC2)cc1
1070	CC(C)N1C(=O)C(C)(C(=O)Nc2ccc(F)c(Cl)c2)Oc2cccnc21 (centres undefined)
983	CCOc1nc2ccccc2nc1N1CCCC(C(=O)N2CCOCC2)C1 (centres undefined)
892	COc1cc(Nc2ncc(C(=O)O)c(C(C)C)n2)cc(OC)c1
779	CSc1cccc2sc(NC(=O)C3CCN(S(C)(=O)=O)CC3)nc12
889	COc1ccccc1N1CCN(c2nnc(-c3nnc(C)o3)c3ccccc23)CC1
639	CCN(CC)C(=O)c1c(C)sc2ccn(C)c(=O)c12
688	CC(=O)c1cccc(NC(=O)C(C)Oc2ccc(=O)n(-c3ccc(F)cc3)n2)c1 (centres undefined)
696	CCC(=O)N1CCc2cc(N3CC(C(=O)Nc4cccc(C(C)=O)c4)CC3=O)ccc21 (centres undefined)
1210	Cc1ccc(-c2csc(NC(=O)CCc3nc(CSc4nc5cc(C)ccc5o4)no3)n2)cc1
967	COc1ccc(Cl)cc1S(=O)(=O)N1CCCC(C(=O)Nc2ccccc2)C1 (centres undefined)
677	COc1ccc(NS(=O)(=O)c2cc3n(c2)CCCNC3=O)cc1Cl
680	COC(=O)Cn1c(-c2ccc(C)cc2)cnc1SCC(=O)Nc1nnc(C)s1
711	CCc1ccc(NC(=O)N2CCC(c3nc4cccnc4n3C)C2)cc1 (centres undefined)
723	CCOC(=O)C(=O)Nc1cccc(F)c1
627	O=C(NCc1ccc(F)cc1F)C1CCN(c2cc(N3CCOCC3)ncn2)CC1
773	O=C(NCC(=O)N1CCCc2ccccc21)c1cccc2[nH]ccc12
